According to US8258099B2, “Pin1-modulating compounds and methods of use thereof” (Max-Planck-Gesellschaft zur Foerderung der Wissenschaften …, priority 2004, dated 2012):
Square brackets hold non-standard residues; d marks the D form. Peptide text beside a SMILES is read from it. * marks the point of attachment. Biotin = O=C1N[C@H]2[C@H](CS[C@H]2CCCCC(=O)*)N1; d(pT) = C[C@H](OP(=O)(O)O)[C@@H](N)C(=O)O; 2Nal = N[C@@H](Cc1ccc2ccccc2c1)C(=O)O; Bta = N[C@@H](Cc1csc2ccccc12)C(=O)O; Pip = O=C(O)[C@@H]1CCCCN1

Assays:
endogenous XlPin1 = assay: Immunofluorescence of microinjected X. laevis embryos; assay type: in vivo; details: stage 8
Experimental: FIG. 11 depicts the colocalization of peptide 16 and endogenous XlPin1 in X. laevis embryos. 100 pmol and 250 pmol of peptide 16 dissolved in 10 nl PBS buffer were injected in X. laevis embryos at stage 2 of development. In a control experiment, 10 nl of the pure PBS buffer were injected. Embryos were fixed at stage 8, embedded and cryosectioned. Peptide 16 is stained in green using the Oregon Green™ 488-labeled NeutrAvidin biotin-binding protein. Endogenous XlPin1 is stained in red using a monoclonal anti hPin1 antibody (mAb hPin1) from mouse and an Alexa Fluor 546™-conjugated secondary antibody. Overlapping patterns are shown in yellow in the merged images. Nuclei are stained with DAPI.
Microinjection was done into the animal half of X. laevis embryos at stage 2 of development. In every case, the injection volume was 10 nl. Immunofluorescence studies of frozen X. laevis embryo sections were performed as previously described (Julius et al., 2000). Ten-micrometer cryosections of stage 8 embryos were labelled using a monoclonal anti hPin1 antibody (mouse) followed by incubation with Alexa Fluor 546™-conjugated anti mouse antibody of goat serum (Molecular Probes). […] Samples were analyzed using an Axioplan epifluorescence microscope with fluorescein and Cy3 selective filter sets. […]

[1] = Stability against cellular phosphatases and proteases in HeLa cell lysate; assay type: in vitro ADME; details: discussion statement (FIG. 4)
Experimental: FIG. 4 depicts the stability of peptide 17 against cellular phosphatases and proteases. Peptide 17 was incubated for 3 hours in HeLa cell lysate in the absence of phosphatase and protease inhibitors. The mixture was then analyzed by capillary electrophoresis (short dashed line). As controls, the untreated peptide 17 (solid line) and its nonphosphorylated derivative (dotted line) were used. The temperature of the capillary thermostating system was kept at 16° C. Separation buffer was 50 mM sodium phosphate, pH 7.0. Signals were detected at 220 nm.
Peptide 17 was incubated with HeLa cell lysate for 3 h and analyzed with capillary electrophoresis using UV detection at 220 nm on a P/ACE MDQ (Beckman Coulter, Palo Alto, Calif.) system. Fused-silica capillaries (Polymicro Technologies) of 40 cm length at an operation voltage of 20 kV were used. As references, untreated peptide 17 and its nonphosphorylated derivative were used. The samples were hydrodynamically injected with 3.45 kPa for 10 s. 50 mM sodium phosphate buffer (pH 7.0) was used as separation buffer. The system temperature was kept at 16° C.
The stability of peptides 15 and 17 in cytoplasmic extracts from HeLa cells was investigated using MALDI-TOF mass spectrometry and capillary electrophoresis, respectively. In the cytosolic incubation mixture, streptavidin sepharose beads served to isolate peptide 15 fragments after prolonged incubation. […] Therefore, phosphopeptides are useless for evaluating Pin1 functions in vivo unless dephosphorylation can be avoided.

X. laevis embryos = assay: Microinjection in X. laevis embryos, cell division; assay type: in vivo; details: microinjection at stage 2
Experimental: FIG. 8 depicts the blocking of cell division by the injection of peptide 17 in X. laevis embryos. 50-300 pmol of peptide 17 or 300 pmol of its nonphosphorylated derivative (control) dissolved in 10 nl PBS buffer were microinjected in the animal half of X. laevis embryos at stage 2 of development. Embryos with large and/or apoptotic appearing cells surrounded by normally developing cells were counted after further 5 hours (stage 8-9) of development. […] Each value is the average of four independent experiments.
FIGS. 9A-F depicts phenotypic analysis of X. laevis embryos after injection of peptide 17. 300 pmol of peptide 17 or its nonphosphorylated derivative dissolved in 10 nl PBS buffer were injected in the animal half of X. laevis embryos at stage 2 of development. 1.5 hour at stage 6 (A), 2.5 hours at stage 7 (B) and 4-5 hours at stage 8-9 (C, D) after injection enlarged cells became visible. Cells that are blocked in cell division are marked with a white arrow. Controls of uninjected embryos of stage 8-9 and embryos that were injected with 300 pmol of the nonphosphorylated derivative of peptide 17 are shown in panels E and F. The site where the nonphosphorylated derivative of peptide 17 was injected is marked with a white arrow (F).
FIGS. 10A-D depict the rescue of peptide 17 caused cell division block in X. laevis embryos by hPin1 (A, B) and different hPin1 variants (C, D). FIG. 10A depicts the time course of V5-tagged hPin1 expression was analyzed by preparation of X. laevis embryo lysate 1, 2 and 4 hours after injection of 1, 2 or 3 ng of V5-tagged hPin1 mRNA. In every case, the injected volume was 10 nl. Lysates were prepared in lysis buffer containing phosphatase and protease inhibitors. Samples were separated by SDS PAGE followed by western blotting. Endogenous XlPin1 and V5-tagged hPin1 were detected using an anti hPin1 PPIase domain antiserum as primary antibody followed by incubation with a horseradish peroxidase-conjugated secondary antibody. Visualization was done using the SuperSignal® substrate. […] In every case, the whole volume of injection was 10 nl. The indicated amount of the mRNA was injected in the animal half of 30 embryos at stage 2 of development. Embryos with large and/or apoptotic appearing cells surrounded by normally developed cells were counted after additional 5 hours of development (stage 8-9). […] Each percentage of vital embryos shown in the figure is the average of four independent experiments. FIG. 10C indicates the expression of V5-tagged hPin1 variants was evaluated by preparation of embryo lysate after 4 hours of injection of the respective mRNA (2 ng) in X. laevis embryos. Lysates were prepared in lysis buffer containing phosphatase and protease inhibitors. Samples were separated using SDS PAGE followed by western blot analysis. Endogenous XlPin1 and injected V5-tagged hPin1 variants were detected using an anti hPin1 PPIase domain antiserum as primary antibody and a horseradish peroxidase-conjugated secondary antibody. Visualization was done by a chemiluminescent reaction using the SuperSignal® substrate (Pierce). FIG. 10D depicts 250 pmol of peptide 17 was coinjected with 2 ng mRNA of the indicated V5-tagged hPin1 variant (whole volume 10 nl) in the animal half of 30 X. laevis embryos at stage 2 of development. Results were analyzed as described for FIG. 10B. Each percentage of vital embryos shown in the figure is the average of four independent experiments.
Microinjection was done into the animal half of X. laevis embryos at stage 2 of development. In every case, the injection volume was 10 nl. Immunofluorescence studies of frozen X. laevis embryo sections were performed as previously described (Julius et al., 2000). Ten-micrometer cryosections of stage 8 embryos were labelled using a monoclonal anti hPin1 antibody (mouse) followed by incubation with Alexa Fluor 546™-conjugated anti mouse antibody of goat serum (Molecular Probes). […]

authentic XlPin1 = assay: Pull down assay, X. laevis embryo lysate; assay type: binding; details: no phosphatase inhibitors, streptavidin sepharose
Experimental: (§1) FIGS. 5A-B depict pull down assays showing peptide 16 binds to authentic XlPin1 (A) and hPin1 from HeLa cells (B). FIG. 5A depicts the indicated concentrations of peptide 16 were incubated with X. laevis embryo extract in the absence of phosphatase inhibitors. Peptide 16/XlPin1-complex was then extracted from the respective mixture using streptavidin sepharose. Samples were analyzed regarding coextracted XlPin1 by SDS PAGE followed by western blot analysis. Untreated lysate (input) was loaded as a control. Authentic XlPin1 was detected using an anti hPin1 PPIase domain antiserum followed by incubation with a horseradish peroxidase-conjugated secondary antibody. Visualization was done using the SuperSignal® substrate. FIG. 5B indicates concentrations of peptide 16 were incubated with HeLa cell lysate in the absence of phosphatase inhibitors. The peptide 16/hPin1-complex was then precipitated from the respective mixture using streptavidin sepharose and isolated from the supernatant. Extracted proteins and the supernatants were then analyzed by SDS PAGE. […] After western blotting, hPin1 was detected using an anti hPin1 PPIase domain antiserum as primary antibody and a horseradish peroxidase-conjugated secondary antibody. […]
(§2) Peptide 16 (see Table III) was incubated with HeLa cell or X. laevis embryo lysate for 1 hour at 4° C. […] The samples were then heated to 95° C. and analyzed by SDS PAGE. […]

authentic hPin1 = molecular target: T1, authentic hPin1 (Homo sapiens, UniProt Q13526); assay: Pull down assay, HeLa cell lysate; assay type: binding; details: streptavidin sepharose
T1 construct: endogenous in cells; host or cells: HeLa cell lysate
Experimental: as §1, §2

T1 sequence (Q13526 whole entry): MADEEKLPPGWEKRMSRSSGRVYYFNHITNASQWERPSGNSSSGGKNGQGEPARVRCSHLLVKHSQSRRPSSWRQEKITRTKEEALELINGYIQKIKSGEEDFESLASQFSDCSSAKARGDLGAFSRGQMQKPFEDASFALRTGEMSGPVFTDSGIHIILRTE

CC(=O)N[C@@H](CCCCNC(=O)CCCC[C@@H]1SC[C@@H]2NC(=O)N[C@@H]21)C(=O)N[C@@H](C)C(=O)N[C@@H](C)C(=O)N[C@@H](Cc1csc2ccccc12)C(=O)N[C@@H](C(=O)N1CCCC[C@H]1C(=O)N[C@@H](Cc1ccc2ccccc2c1)C(=O)N[C@@H](CCC(N)=O)C(N)=O)[C@H](C)OP(=O)(O)O [Peptide 16, Ac-Lys(N^ε-biotinoyl)-Ala-Ala-Bth-D-Thr(PO3H2)-Pip-Nal-Gln-NH2] (Ac-K(Biotin)AA[Bta][d(pT)][Pip][2Nal]Q-NH2)
colocalization with XlPin1 (endogenous XlPin1; 100 pmol injected): clear nuclear colocalization | effect on embryonic tissue (endogenous XlPin1; 250 pmol injected): distortions of the embryonic tissue | stability in cytosol [1]: sufficiently stable | effect on development of the embryos (X. laevis embryos): cell cycle blockage and embryonic death | coprecipitation of authentic XlPin1 (authentic XlPin1): coprecipitated with peptide 16 in a dose-dependent manner | pull down of authentic hPin1 (authentic hPin1): pulled down
